“Also recorded” adds a separate entry of the source. Blank lines part the entries; values can stand above or below the molecule they belong to.
Legend:
Format in all cases: cell-based, human
CYP1A2 = CYP1A2 activity assay (P450-Glo) after omeprazole
Experimental: (§1) CYP3A4 and CYP1A2 assays were performed by harvesting HLOs, washing in PBS, plating them into a 96 well assay plate, and treating them with rifampicin and omeprazole, respectively, for 24 hours. The assays were then performed using P450-Glo CYP3A4 and CYP1A2 Assay (Promega) and normalized using CellTiter-Glo Luminescent Cell Viability Assay according to manufacturer instructions.

liver organoids [1] = assay: Hyperbilirubinemia induction: HLOs treated with varying bilirubin concentrations (brightfield); conditions: bilirubin 1, 2, 5 or 10 mg/L, 1 and 4 days (FIG. 3B)
Experimental: (§2) On day 27, the mature organoids were treated with bilirubin (1-10 mg/L), doxycycline (100 ng/mL; added 3 days prior to activate gene expression) and/or additionally with drugs such as hydrocortisone, dexamethasone, ketoconazole and mifepristone (1-2 μM for each) for 5 days and then harvested for downstream assays. Bilirubin assay was performed using a colorimetric kit (ab235627 from Abcam). RNA was isolated using the RNeasy mini kit (Qiagen, Hilden, Germany). Reverse transcription was carried out using the High-Capacity cDNA Reverse Transcription Kit (Thermo Fisher Scientific Inc.) according to manufacturer's protocol. qPCR was carried out using TaqMan gene expression master mix (Applied Biosystems) on a QuantStudio 5 Real-Time PCR System (Thermo Fisher Scientific Inc.). All primers and probe information for each target gene was obtained from the Universal ProbeLibrary Assay Design Center (available on the World Wide Web at lifescience.roche.com/en_us/brands/universal-probe-library.html). Images were captured on the KEYENCE BZ-X710 Fluorescence Microscope (Keyence).

CNS HLOs = assay: Bilirubin toxicity in Crigler-Najjar syndrome liver organoids (brightfield); conditions: 10 mg/L bilirubin, inactive UGT1A1 gene (FIG. 3H)
Experimental: On day 27, the mature organoids were treated with bilirubin (1-10 mg/L), doxycycline (100 ng/mL; added 3 days prior to activate gene expression) and/or additionally with drugs such as hydrocortisone, dexamethasone, ketoconazole and mifepristone (1-2 μM for each) for 5 days and then harvested for downstream assays. […] Images were captured on the KEYENCE BZ-X710 Fluorescence Microscope (Keyence).

CYP3A4 = CYP3A4 activity assay (P450-Glo) after rifampicin
Experimental: as §1

liver organoids [2] = assay: Immunofluorescence of mature liver enzymes and transport proteins; conditions: 1 mg/L bilirubin (FIGS. 1F-H)
Experimental: For maturation induction in HLOs, the day 15 organoids were fed with complete HCM with supplements in addition to low dose bilirubin (1 mg/L). This treatment was continued until day 30 when the organoids were harvested. […] For whole mount immunostains, the organoids were fixed in 4% PFA, permeabilized with 0.1% PBST, blocked with 5% Normal Donkey Serum in 0.1% PBST, and stained with the appropriate primary and secondary antibodies. The images were captured on the Nikon A1 inverted confocal microscope.

mGULO organoids = assay: Survival and morphology of mGULO organoids with doxycycline induction; conditions: Dox 10, 100, 1000 ng/mL, with bilirubin (FIG. 2O)
liver organoids [3] = assay: Bilirubin assay measuring unconjugated and conjugated bilirubin in liver organoids; conditions: liver organoids in 10 mg/L bilirubin; drug 1 or 5 μM (FIG. 4B, 4D)
Experimental: Bilirubin levels were measured by collecting the supernatant from HLOs treated with bilirubin and serum from rats. The supernatant and serum were assayed with Bilirubin Assay Kit (Total and Direct, Colorimetric) (abcam) and Bilirubin Assay Kit (Sigma-Aldrich) according to manufacturer instructions.

UGT1A1 = assay: RT-qPCR of UGT1A1 in liver organoids; conditions: 10 mg/L bilirubin plus drug vs 10 mg/L bilirubin alone (FIG. 4E)
Experimental: as §2

NRF2 = assay: RT-qPCR of NRF2 in liver organoids; conditions: 10 mg/L bilirubin plus drug vs 10 mg/L bilirubin alone (FIG. 4E)
Experimental: as §2

UGT1A1 gene = assay: ChIP-PCR and ChIP-qPCR of hyperbilirubinemic organoids; conditions: 10 mg/L bilirubin, 1 μM drug (FIG. 4H)
liver organoids [4] = assay: RNA sequencing of HLOs; conditions: 10 mg/L bilirubin and 1 μM mifepristone vs control (FIG. 4F)
Experimental: RNA was isolated using the RNeasy mini kit (Qiagen). […] All the samples were amplified with TaqMan Gene Expression Assays and normalized with 18S rRNA Endogenous Control. For RNA sequencing, the extracted RNA quality was evaluated with an Agilent 2100 Bioanalyzer (Agilent). A sequence library was prepared using a TruSeq Stranded mRNA kit (Illumina) and sequenced using NovaSeq 6000 (Illumina). Reads were aligned to human genome assembly hg38 and quantified using the quasi-mapper Salmon (v1.8.0). Gene-expression analysis was performed using the R Bioconductor package DESeq2 (v1.36.0). The read count matrix was normalized by size factors, and a variance stabilizing transformation (VST) was applied to the normalized expression data. The data was visualized using clusterProfiler (v.4.4.1) and pheatmap (v1.0.12) packages. […] RNA sequencing parameters were 150 bp paired-end sequencing at a depth of 20M reads per samples. Fastq read files for each sample were obtained and then aligned using Salmon, a quasi-mapping tool that aligns and quantifies transcripts using RNA-seq data. Raw transcript counts and normalized transcripts per million (TPM) values were obtained and analyzed for differential expression with DESeq2. […]

- CYP1A2 activity (CYP1A2; 1 mg/L bilirubin-treated organoids, after omeprazole, vs untreated control (FIG. 1E)): increased cytochrome activity
- CYP3A4 activity (CYP3A4; 1 mg/L bilirubin-treated organoids, after rifampicin, vs untreated control (FIG. 1E)): increased cytochrome activity
Structure (SMILES): C=CC1=C(C)/C(=C/c2[nH]c(Cc3[nH]c(/C=C4\NC(=O)C(C)=C4C=C)c(C)c3CCC(=O)O)c(CCC(=O)O)c2C)NC1=O [bilirubin]
- organoid morphology and intracellular bilirubin accumulation (liver organoids [1]): significant morphological changes and intracellular accumulation of bilirubin
- organoid toxicity in CNS HLOs (CNS HLOs): liver organoid toxicity
- expression of CYP2E1, CYP7A1, MPR1, MRP3, PROX1, OATP2 (immunofluorescence) (liver organoids [2]): expressed mature liver enzymes and transport proteins

- CYP1A2 activity (CYP1A2; mGULO organoids, Dox plus low dose bilirubin, omeprazole insult (FIG. 2P)): increased
- CYP3A4 activity (CYP3A4; mGULO organoids, Dox plus low dose bilirubin, rifampicin insult (FIG. 2P)): increased
Structure (SMILES): C[C@H]1c2cccc(O)c2C(=O)C2=C(O)[C@]3(O)C(=O)C(C(N)=O)=C(O)[C@@H](N(C)C)[C@@H]3[C@@H](O)[C@@H]21 [doxycycline]
- gross morphology of mGULO organoids (mGULO organoids): maintain their gross morphology

Structure (SMILES): C[C@]12CCC(=O)C=C1CC[C@@H]1[C@@H]2[C@@H](O)C[C@@]2(C)[C@H]1CC[C@]2(O)C(=O)CO [hydrocortisone]
- bilirubin conjugation (unconjugated vs conjugated bilirubin) (liver organoids [3]): decreased bilirubin conjugation ability
- UGT1A1 expression (UGT1A1): depressed

Structure (SMILES): CC(=O)N1CCN(c2ccc(OCC3COC(Cn4ccnc4)(c4ccc(Cl)cc4Cl)O3)cc2)CC1 (stereo not drawn) [ketoconazole]
- bilirubin conjugation (unconjugated vs conjugated bilirubin) (liver organoids [3]): improved conjugation and metabolism of bilirubin; also recorded: increased bilirubin conjugation
- UGT1A1 expression (UGT1A1): elevated
- NRF2 expression (NRF2): improved

Structure (SMILES): CC#C[C@]1(O)CC[C@H]2[C@@H]3CCC4=CC(=O)CCC4=C3[C@@H](c3ccc(N(C)C)cc3)C[C@@]21C [mifepristone]
- bilirubin conjugation (unconjugated vs conjugated bilirubin) (liver organoids [3]): improved conjugation and metabolism of bilirubin; also recorded: increased bilirubin conjugation
- silencing of the UGT1A1 gene (MECP2) (UGT1A1 gene): reverses this silencing
- UGT1A1 expression (UGT1A1): elevated
- gene expression / enriched pathways (liver organoids [4]): enrichment of many genes involved in liver function
- NRF2 expression (NRF2): improved

— patent publication US20240368556A1, “LIVER ORGANOID MODEL FOR HYPERBILIRUBINEMIA AND METHODS OF MAKING AND USING SAME” (CHILDREN’S HOSPITAL MEDICAL CENTER, priority 2021, published 2024)
